Our source for the Activity and IC50 values is ChEMBL document CHEMBL4052645, “Discovery of potent and efficacious pyrrolopyridazines as dual JAK1/3 inhibitors” (Bioorg Med Chem Lett, 2017).

Experiment [1] has as its target Dual specificity mitogen-activated protein kinase kinase 5 (Homo sapiens) (UniProt Q13163). The experiment is described as follows: Inhibition of human MAP2K5 (L98 to P448 residues) expressed in mammalian expression system assessed as residual activity at 50 nM by KINOMEscan assay relative to control.
In experiment [2] the target is Inhibitor of nuclear factor kappa-B kinase subunit alpha (Homo sapiens) (UniProt O15111). Briefly: Inhibition of wild-type human full length IKK-alpha (M1 to E745 residues) expressed in mammalian expression system assessed as residual activity at 50 nM by Kinomescan method relative to control.
For experiment [3], the target named is RAF proto-oncogene serine/threonine-protein kinase (Homo sapiens) (UniProt P04049). Briefly: Inhibition of wild-type human partial length RAF1 (I330 to T640 residues) expressed in bacterial expression system assessed as residual activity at 50 nM by Kinomescan method relative to control.
RAF proto-oncogene serine/threonine-protein kinase (Homo sapiens), sequence (P04049 whole entry, the tested form may be a part): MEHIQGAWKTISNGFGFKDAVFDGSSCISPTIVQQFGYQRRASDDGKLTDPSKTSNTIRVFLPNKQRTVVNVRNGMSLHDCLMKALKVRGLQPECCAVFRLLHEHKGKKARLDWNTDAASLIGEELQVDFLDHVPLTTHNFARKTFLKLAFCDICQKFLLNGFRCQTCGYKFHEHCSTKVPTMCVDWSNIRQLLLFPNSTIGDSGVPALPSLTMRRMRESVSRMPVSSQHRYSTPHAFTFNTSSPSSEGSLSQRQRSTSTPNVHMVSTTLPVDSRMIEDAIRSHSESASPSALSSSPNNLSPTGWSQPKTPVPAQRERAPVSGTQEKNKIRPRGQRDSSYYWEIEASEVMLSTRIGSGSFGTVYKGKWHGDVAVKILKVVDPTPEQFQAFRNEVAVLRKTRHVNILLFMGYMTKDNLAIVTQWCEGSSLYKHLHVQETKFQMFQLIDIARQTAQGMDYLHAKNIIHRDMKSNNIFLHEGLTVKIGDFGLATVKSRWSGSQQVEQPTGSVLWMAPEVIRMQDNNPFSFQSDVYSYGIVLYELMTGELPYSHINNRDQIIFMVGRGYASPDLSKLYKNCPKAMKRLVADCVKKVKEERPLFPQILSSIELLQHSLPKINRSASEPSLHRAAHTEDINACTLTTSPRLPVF
The target of experiment [4] is Serine/threonine-protein kinase TAO3 (Homo sapiens) (UniProt Q9H2K8). Briefly: Inhibition of wild-type human partial length TAO3 (M1 to T316 residues) expressed in mammalian expression system assessed as residual activity at 50 nM by Kinomescan method relative to control.
Serine/threonine-protein kinase TAO3 (Homo sapiens), sequence (Q9H2K8 whole entry, the tested form may be a part): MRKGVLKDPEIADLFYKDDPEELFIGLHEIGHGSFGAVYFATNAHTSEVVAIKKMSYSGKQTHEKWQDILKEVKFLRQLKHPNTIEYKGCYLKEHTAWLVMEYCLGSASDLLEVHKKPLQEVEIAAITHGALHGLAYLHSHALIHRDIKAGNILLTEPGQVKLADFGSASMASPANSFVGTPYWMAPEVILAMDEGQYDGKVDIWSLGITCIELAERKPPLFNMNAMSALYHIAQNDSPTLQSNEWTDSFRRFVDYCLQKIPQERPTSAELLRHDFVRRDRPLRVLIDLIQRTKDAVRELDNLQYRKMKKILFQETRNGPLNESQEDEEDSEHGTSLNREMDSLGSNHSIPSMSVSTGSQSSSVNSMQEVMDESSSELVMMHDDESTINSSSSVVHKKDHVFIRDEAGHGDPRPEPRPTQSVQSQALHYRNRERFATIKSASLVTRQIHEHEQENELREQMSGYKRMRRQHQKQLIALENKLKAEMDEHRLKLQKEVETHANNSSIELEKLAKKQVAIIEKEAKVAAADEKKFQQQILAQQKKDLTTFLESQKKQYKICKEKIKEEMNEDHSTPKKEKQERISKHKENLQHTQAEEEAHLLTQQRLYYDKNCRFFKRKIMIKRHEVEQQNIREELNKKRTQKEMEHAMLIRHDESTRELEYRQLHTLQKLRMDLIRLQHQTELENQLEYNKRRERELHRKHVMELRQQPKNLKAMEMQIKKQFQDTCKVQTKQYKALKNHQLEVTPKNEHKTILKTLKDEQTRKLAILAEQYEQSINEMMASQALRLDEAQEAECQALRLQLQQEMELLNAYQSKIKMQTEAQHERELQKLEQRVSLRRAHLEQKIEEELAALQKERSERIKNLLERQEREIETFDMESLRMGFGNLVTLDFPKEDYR
Experiment [5] deals with Fibroblast growth factor receptor 1 (Homo sapiens) (UniProt P11362). Briefly: Inhibition of wild-type human partial length FGFR1 (P357 to V669 residues) expressed in bacterial expression system assessed as residual activity at 50 nM by Kinomescan method relative to control.
Fibroblast growth factor receptor 1 (Homo sapiens), sequence (P11362 22-822 limits assumed): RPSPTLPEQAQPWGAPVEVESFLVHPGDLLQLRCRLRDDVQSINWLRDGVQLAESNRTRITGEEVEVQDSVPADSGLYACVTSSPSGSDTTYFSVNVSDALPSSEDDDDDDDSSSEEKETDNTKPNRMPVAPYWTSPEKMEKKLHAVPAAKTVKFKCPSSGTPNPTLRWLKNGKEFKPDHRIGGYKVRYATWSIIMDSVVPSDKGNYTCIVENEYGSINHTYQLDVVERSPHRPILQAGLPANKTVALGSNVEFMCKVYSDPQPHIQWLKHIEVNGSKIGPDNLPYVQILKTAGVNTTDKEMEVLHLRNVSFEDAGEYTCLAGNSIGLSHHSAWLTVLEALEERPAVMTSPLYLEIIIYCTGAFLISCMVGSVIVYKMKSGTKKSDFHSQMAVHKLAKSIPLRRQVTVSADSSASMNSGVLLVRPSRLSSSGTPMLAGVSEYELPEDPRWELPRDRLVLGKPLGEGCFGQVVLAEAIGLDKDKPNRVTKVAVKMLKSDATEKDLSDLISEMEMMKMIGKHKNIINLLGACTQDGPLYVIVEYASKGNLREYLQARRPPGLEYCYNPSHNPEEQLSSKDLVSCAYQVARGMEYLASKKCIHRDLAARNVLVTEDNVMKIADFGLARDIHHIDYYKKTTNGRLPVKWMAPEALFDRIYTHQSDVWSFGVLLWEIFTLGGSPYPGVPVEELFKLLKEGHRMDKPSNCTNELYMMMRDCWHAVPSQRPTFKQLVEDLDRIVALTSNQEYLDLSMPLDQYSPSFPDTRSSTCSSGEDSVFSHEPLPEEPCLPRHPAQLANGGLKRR
Experiment [6] deals with Ribosomal protein S6 kinase alpha-5 (Homo sapiens) (UniProt O75582). The experiment is described as follows: Inhibition of wild-type human partial length C-terminal MSK1 kinase domain 2 (V390 to T718 residues) expressed in bacterial expression system assessed as residual activity at 50 nM by Kinomescan method relative to control.
In experiment [7] the target is Proto-oncogene tyrosine-protein kinase Src (Homo sapiens) (UniProt P12931). The experiment is described as follows: Inhibition of wild-type human partial length SRC (L240 to L536 residues) expressed in bacterial expression system assessed as residual activity at 50 nM by Kinomescan method relative to control.
For experiment [8], the target named is SNF-related serine/threonine-protein kinase (Homo sapiens) (UniProt Q9NRH2). The experiment is described as follows: Inhibition of wild-type human partial length SNRK (M1 to E339 residues) expressed in mammalian expression system assessed as residual activity at 50 nM by Kinomescan method relative to control.
In experiment [9] the target is T1, Tyrosine-protein kinase JAK3 (Homo sapiens, UniProt P52333).
T1 sequence (P52333 whole entry): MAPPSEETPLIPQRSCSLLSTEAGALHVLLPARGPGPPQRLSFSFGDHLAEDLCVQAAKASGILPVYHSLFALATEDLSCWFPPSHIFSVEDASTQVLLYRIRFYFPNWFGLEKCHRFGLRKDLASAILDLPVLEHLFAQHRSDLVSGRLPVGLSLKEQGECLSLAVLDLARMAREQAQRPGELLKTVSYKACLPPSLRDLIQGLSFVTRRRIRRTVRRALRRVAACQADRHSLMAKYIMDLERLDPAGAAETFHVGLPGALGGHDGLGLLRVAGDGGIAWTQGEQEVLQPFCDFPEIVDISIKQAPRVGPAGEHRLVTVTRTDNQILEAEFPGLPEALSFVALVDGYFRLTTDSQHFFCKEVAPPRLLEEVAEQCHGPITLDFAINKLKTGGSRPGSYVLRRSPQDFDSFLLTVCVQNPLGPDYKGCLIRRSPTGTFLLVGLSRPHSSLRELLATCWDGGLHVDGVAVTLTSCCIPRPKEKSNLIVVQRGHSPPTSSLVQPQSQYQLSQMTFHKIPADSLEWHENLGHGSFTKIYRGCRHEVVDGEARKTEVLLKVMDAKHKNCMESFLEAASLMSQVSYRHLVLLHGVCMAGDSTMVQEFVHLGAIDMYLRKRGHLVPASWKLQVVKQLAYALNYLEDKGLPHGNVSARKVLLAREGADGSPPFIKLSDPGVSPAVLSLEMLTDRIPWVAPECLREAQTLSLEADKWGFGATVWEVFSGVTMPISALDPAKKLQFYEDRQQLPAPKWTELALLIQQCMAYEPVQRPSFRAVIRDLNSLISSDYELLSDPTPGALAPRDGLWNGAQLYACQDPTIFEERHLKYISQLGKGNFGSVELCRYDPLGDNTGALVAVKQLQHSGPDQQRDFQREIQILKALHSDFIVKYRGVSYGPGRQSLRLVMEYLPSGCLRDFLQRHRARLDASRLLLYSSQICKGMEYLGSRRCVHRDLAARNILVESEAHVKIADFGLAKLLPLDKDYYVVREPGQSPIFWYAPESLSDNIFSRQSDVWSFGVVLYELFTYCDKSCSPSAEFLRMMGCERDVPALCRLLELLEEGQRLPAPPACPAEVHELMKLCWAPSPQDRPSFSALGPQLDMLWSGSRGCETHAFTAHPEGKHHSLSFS
The experiment is described as follows: Inhibition of JAK3 (unknown origin) using CSKtide as substrate after 30 mins in presence of [gamma33P]ATP by liquid scintillation counting method.

The target in experiment [10] is Tyrosine-protein kinase Fes/Fps (Homo sapiens) (UniProt P07332). Briefly: Inhibition of wild-type human partial length FES (I527 to R822 residues) expressed in bacterial expression system assessed as residual activity at 50 nM by Kinomescan method relative to control.
For experiment [11], the target named is Fibroblast growth factor receptor 2 (Homo sapiens) (UniProt P21802). Briefly: Inhibition of wild-type human partial length FGFR2 (D457 to E769 residues) expressed in bacterial expression system assessed as residual activity at 50 nM by Kinomescan method relative to control.
Experiment [12] concerns the target Dual specificity protein kinase TTK (Homo sapiens) (UniProt P33981). The experiment is described as follows: Inhibition of wild-type human partial length TTK (N505 to V798 residues) expressed in bacterial expression system assessed as residual activity at 50 nM by Kinomescan method relative to control.
Experiment [13] deals with Ephrin type-B receptor 4 (Homo sapiens) (UniProt P54760). Briefly: Inhibition of wild-type human partial length EPHB4 (H585 to G892 residues) expressed in bacterial expression system assessed as residual activity at 50 nM by Kinomescan method relative to control.
Experiment [14] deals with Transient receptor potential cation channel subfamily M member 6 (Homo sapiens) (UniProt Q9BX84). Briefly: Inhibition of wild-type human partial length TRPM6 (Q1723 to I1998 residues) expressed in mammalian expression system assessed as residual activity at 50 nM by Kinomescan method relative to control.
Experiment [15] addresses Serine/threonine-protein kinase 24 (Homo sapiens) (UniProt Q9Y6E0). Briefly: Inhibition of wild-type human partial length MST3 (A30 to S311 residues) expressed in bacterial expression system assessed as residual activity at 50 nM by Kinomescan method relative to control.
The target of experiment [16] is Phosphatidylinositol 4,5-bisphosphate 3-kinase catalytic subunit delta isoform (Homo sapiens) (UniProt O00329). The experiment is described as follows: Inhibition of wild-type human partial length PIK3CD (R108 to Q1044 residues) expressed in mammalian expression system assessed as residual activity at 50 nM by Kinomescan method relative to control.
Phosphatidylinositol 4,5-bisphosphate 3-kinase catalytic subunit delta isoform (Homo sapiens), sequence (O00329 whole entry, the tested form may be a part, canonical isoform): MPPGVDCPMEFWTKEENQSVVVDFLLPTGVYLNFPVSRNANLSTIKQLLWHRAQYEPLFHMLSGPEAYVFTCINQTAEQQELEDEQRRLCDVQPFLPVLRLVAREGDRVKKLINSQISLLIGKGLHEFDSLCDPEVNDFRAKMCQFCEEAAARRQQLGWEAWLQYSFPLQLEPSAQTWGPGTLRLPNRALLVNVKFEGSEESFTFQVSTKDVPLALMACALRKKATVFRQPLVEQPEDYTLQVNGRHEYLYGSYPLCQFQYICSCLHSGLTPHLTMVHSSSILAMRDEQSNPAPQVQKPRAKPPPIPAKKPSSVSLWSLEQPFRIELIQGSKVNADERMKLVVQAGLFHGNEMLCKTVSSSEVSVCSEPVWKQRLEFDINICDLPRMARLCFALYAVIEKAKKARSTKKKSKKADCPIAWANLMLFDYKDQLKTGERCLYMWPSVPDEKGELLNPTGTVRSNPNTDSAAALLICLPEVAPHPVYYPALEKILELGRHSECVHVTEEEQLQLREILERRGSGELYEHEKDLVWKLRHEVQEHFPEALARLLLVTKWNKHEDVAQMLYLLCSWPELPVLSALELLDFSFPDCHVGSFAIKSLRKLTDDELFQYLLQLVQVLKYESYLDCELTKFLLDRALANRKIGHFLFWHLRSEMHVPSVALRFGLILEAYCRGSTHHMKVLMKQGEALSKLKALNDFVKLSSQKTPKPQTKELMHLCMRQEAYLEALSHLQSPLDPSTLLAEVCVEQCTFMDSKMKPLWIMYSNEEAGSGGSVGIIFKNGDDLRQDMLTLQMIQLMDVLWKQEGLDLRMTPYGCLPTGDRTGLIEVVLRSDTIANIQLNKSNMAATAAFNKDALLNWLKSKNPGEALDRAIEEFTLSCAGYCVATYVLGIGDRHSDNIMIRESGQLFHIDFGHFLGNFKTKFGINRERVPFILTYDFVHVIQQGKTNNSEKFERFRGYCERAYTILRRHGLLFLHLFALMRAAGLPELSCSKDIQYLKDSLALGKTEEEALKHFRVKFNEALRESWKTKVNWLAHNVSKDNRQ

Molecules are shown by their SMILES.

Serine/threonine-protein kinase 24 (Homo sapiens), sequence (Q9Y6E0 whole entry, looked up, the tested form may be a part, canonical isoform): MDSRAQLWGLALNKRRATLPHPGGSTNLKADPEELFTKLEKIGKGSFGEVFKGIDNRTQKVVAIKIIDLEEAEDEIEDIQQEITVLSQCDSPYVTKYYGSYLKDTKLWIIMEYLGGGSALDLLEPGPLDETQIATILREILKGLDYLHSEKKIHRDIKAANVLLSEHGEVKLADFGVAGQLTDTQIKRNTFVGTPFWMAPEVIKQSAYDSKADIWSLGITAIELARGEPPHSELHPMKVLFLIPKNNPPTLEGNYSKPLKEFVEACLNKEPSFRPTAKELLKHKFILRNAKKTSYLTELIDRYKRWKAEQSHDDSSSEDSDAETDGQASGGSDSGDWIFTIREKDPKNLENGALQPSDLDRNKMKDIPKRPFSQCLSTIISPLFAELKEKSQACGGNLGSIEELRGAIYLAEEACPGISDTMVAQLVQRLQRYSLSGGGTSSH
Dual specificity protein kinase TTK (Homo sapiens), sequence (P33981 whole entry, the tested form may be a part): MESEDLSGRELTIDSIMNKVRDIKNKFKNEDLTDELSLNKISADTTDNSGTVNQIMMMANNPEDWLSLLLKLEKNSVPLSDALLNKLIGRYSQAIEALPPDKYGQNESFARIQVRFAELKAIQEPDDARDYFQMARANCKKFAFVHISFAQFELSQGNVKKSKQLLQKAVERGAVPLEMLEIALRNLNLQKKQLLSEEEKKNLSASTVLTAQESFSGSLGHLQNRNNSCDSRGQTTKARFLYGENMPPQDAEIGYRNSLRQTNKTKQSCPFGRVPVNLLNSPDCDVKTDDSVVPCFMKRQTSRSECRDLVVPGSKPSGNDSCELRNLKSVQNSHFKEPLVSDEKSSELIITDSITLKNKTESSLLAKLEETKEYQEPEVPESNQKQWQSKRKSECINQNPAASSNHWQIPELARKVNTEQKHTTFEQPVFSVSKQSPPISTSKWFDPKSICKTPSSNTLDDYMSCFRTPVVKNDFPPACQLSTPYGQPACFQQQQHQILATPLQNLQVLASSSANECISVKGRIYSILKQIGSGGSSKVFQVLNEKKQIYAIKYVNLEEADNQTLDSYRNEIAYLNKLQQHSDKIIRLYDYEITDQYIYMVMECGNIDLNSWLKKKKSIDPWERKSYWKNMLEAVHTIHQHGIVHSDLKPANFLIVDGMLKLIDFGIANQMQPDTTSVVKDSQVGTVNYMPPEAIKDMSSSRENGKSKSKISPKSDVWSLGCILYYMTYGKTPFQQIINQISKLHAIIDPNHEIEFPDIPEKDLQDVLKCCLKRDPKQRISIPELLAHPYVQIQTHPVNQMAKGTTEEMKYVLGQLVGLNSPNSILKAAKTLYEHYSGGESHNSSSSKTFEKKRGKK

In the case of `CC1(C)[C@H](Nc2c(C(N)=O)cnn3cc(-c4ccccc4)cc23)CC[C@]1(C)N`, the Activity in experiment [1] came out at 5%; in experiment [2], 100%; in experiment [3] it was 100%; in experiment [4], 82%; in [5] it was 81%; in experiment [6], 95%. For the same compound, the Activity in experiment [7] was 75%; in experiment [8], 100%; in experiment [10], 100%; in experiment [11], 100%; in [12] it was 100%; in experiment [13], 99%. In addition, the Activity stood at 100% in experiment [14], 38% in [15] and 44% in experiment [16]. Also, in experiment [9], the IC50 worked out at 0.9 nM.
Regarding `COc1ccc(-c2cc3c(N[C@@H]4CC[C@](C)(N)C4(C)C)c(C(N)=O)cnn3c2)cn1`, the Activity in experiment [1] was found to be 34%; in experiment [2], 87%; in experiment [3], 100%; in experiment [4] it was 78%; in experiment [5] it was 92%; in [6], 100%. In addition, the Activity in [7] stood at 97%; in experiment [8], 92%; in experiment [10], 98%; in experiment [11], 89%; in experiment [12] it was 81%; in [13], 96%. Moreover, the results for the Activity in [14], in experiment [15] and in [16] were 90%, 61% and 100%, respectively. Moreover, in experiment [9], the IC50 is 0.9 nM.

Broadly, the IC50 is the concentration at which inhibition is half-maximal.
